Here are results for 15 compounds from US6376506B1, “Sulfamide-metalloprotease inhibitors” (Syntex (U.S.A.) LLC, priority 1997, dated 2002).

A value given as a limit tells only on which side of the number the result lay.

For series [1], the target named is T1, human collagenase-1 catalytic domain (Homo sapiens, UniProt P03956).
T1 construct: the collagenase-1 catalytic domain was released by treatment with 1 mM of aminophenylmercuric acetate (APMA); ubiquitin (cleaved yes); made in house; host or cells: E. coli
T1 sequence (P03956 100-269 limits assumed): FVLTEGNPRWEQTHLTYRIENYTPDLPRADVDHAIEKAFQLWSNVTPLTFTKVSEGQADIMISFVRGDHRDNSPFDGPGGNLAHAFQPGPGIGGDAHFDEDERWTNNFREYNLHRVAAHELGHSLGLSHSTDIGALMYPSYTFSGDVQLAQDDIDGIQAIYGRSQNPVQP
The experiment in a line: MMP inhibition in vitro, human collagenase-1. To be noted: MCA-Pro-Leu-Gly-Leu-DPA-Ala-Arg-NH2 hydrolysis at 37° C.; read-out: Collagenase-I IC50. It counts as biochemical. As for the experimental part:
The catalytic domain of human collagenase-1 was expressed as a fusion protein with ubiquitin in E. Coli as described in Gehring, E. R. et al., J. Biol. Chem., 270, 22507, (1995). After purification of the fusion protein, the collagenase-1 catalytic domain was released by treatment with 1 mM of aminophenylmercuric acetate (APMA) for 1 hour at 37° C. and then purified by zinc chelate chromatography.
(§1) The matrix metalloprotease inhibitory activity of compounds of this invention in vitro was determined based on the hydrolysis of MCA-Pro-Leu-Gly-Leu-DPA-Ala-Arg-NH2 (Bachem, Inc.) at 37° C. as described in Knight, C. G., et al., FEBS Lett., 296, 263-266 (1992).
(§2) The matrix metalloprotease enzyme was diluted with assay buffer (50 mM Tricine pH 7.5, 200 mM NaCl, 10 mM CaCl2, and 0.005% Brij-35) containing 10 μmole of above substrate dissolved in DMSO. Compounds of the invention dissolved in DMSO or only DMSO (control samples) were added such that the final DMSO concentration in all assays was 2.5%. The fluorescence changes were monitored with a Perkin-Elmer LS-50B flourimeter using an excitation wavelength of 328 nm and an emission wavelength of 393 nm.

Series [2] deals with T2, human collagenase-3 catalytic domain (Homo sapiens, UniProt P45452).
T2 construct: After purification, the catalytic domain was released by treatment with 1 mM APMA for 1 hour at 37° C; ubiquitin (N, cleaved yes); made in house; host or cells: E. coli
Briefly: MMP inhibition in vitro, human collagenase-3. The series is classed as biochemical. To be noted: MCA-Pro-Leu-Gly-Leu-DPA-Ala-Arg-NH2 hydrolysis at 37° C.; read-out: Collagenase-III IC50. As for the experimental part:
The propeptide and catalytic domain portion of human collagcenase-3 was expressed in E. Coli as an N-terminal fusion protein with ubiquitin. After purification, the catalytic domain was released by treatment with 1 mM APMA for 1 hour at 37° C., and then purified by zinc chelate chromatography.
as §1, §2

Series [3] relates to bovine nasal cartilage plugs implanted subcutaneously in female Lewis rats. The experiment in a line: Cartilage plug degradation in vivo (cartilage plug implant assay, hydroxyproline content). Details: species or system rat. To be noted: 8 or 9 days, hydroxyproline content relative to vehicle group.
Series [4] concerns collagen matrix of bovine cartilage explants. Briefly: Degradation of cartilage plug in vitro (IL-1 stimulated cartilage explant, hydroxyproline content). It counts as cell-based. As to conditions: IL-1-α stimulated bovine cartilage explants, 21 days, hydroxyproline content relative to control; compounds at 10 to 300 nm. How it is done:
The ability of the compounds of this invention to inhibit the degradation of the collagen matrix (as judged by release of hydroxyproline) was determined by the cartilage plug degradation assay in vitro by following a slight modification of the method described in Spirito, S., Doughty, E., et al., “Metalloproteinase inhibitors halt collagen breakdown in IL-1 induced bovine nasal cartilage cultures” Inflamm. Res., 44, Supp. 2: S131—S132, (1995).
Cartilage explants prepared from freshly sacrificed bovine knee joints were added to the culture medium (Dubelco's modified eagle medium, Gibco # 21063-001, Gibco BRL Products, Gaithersburg, Md.), without phenol red, but with HEPES, and L-glutamine and fungizone 2.5 μg/ml, gentamicin 50 μg/ml, penicillin 100 U/ml, and streptomycin 100 μg/ml). The cultures were stimulated with IL-1-α at a final concentration of 20 ng/ml. Compounds of Formula (I), were added at concentrations between 10 and 300 nm in DMSO. The control samples contained only L-1-α. The cultures were incubated at 37° C. in an atmosphere of air with 6% CO2 for 21 days during which time the medium was changed twice/week. The cartilage plugs were removed, hydrolyzed and the hydroxyproline content was determined. The MMP inhibitory activity of test materials is the measure of the hydroxyproline content in the test group relative to the vehicle treated group (control group).

For a further series, the system named is Human Monomac 6 cells. The experiment in a line: Inhibition of TNF release in vitro assay (LPS/PMA stimulated). It counts as cell-based. To be noted: Conc. 2 μM, LPS/PMA stimulated Monomac 6 cells, 2 h. As for the experimental part: The activity of compounds of this invention in inhibiting the TNF release was determined, using the a minor modification of the method described in Pradines-Figueres, A. and Raetz, C. R. H., J. Biol. Chem., 267 (32), 23261, (1992).
Human Monomac 6 cells (Ziegler-Heitbrock, H. W. L., et al., Int. J. Cancer, 41, 456, (1988)) were cultured at 37° C. in RPMI 1640 medium containing 10% fetal calf serum to a density of 1×10^5 cells/ml. 0.23 ml of these cells were placed in each well of a tissue culture plate and the cells were incubated for 15 min. The test compounds were dissolved in above mentioned medium and added and the incubation was continued for an additional 15 min. 10 μl of an lipopolysaccharide/phorbol-12-myristate-13-acetate (LPS/PMA) mixture was added such that the final concentration of lipopolysaccharide was 10 ng/ml and the final concentration of phorbol-12-myristate-13-acetate was 30 ng/ml. The cells were incubated for 2 h after which the plate was centrifuged and the medium was removed and analyzed for TNF content. The analysis was performed using a TNF Quantikine® Immunoassay (R & D Systems, Minneapolis, Minn. 55413) by following the manufacturer's protocol.

In the next series the test system is TNF-α. Briefly: Inhibition of LPS induced TNF-α production in mice in vivo assay. As to conditions: female Balb/c mice, compound subcutaneously 1 h before LPS i.p., serum TNF-α 1.5 h after LPS. As for the experimental part: The activity of compounds of this invention in inhibiting the TNF-α release was determined using a minor modification of the methods described in Zanetti, G.; Heumann, D., et. al., “Cytokine production after intravenous or peritoneal Gram-negative bacterial challenge in mice” J. Immunol., 148, 1890, (1992) and Sekut, L., Menius, J. A., et. al., “Evaluation if the significance of related levels of systemic and localized tumor necrosis factor in different animal models of inflammation” J. Lab. Clin. Med., 124, 813, (1994).
Female Balb/c mice were anesthetized and injected subcutaneously with the test compounds dissolved in CMC vehicle or hydroxypropylmethyl cellulose based vehicle. Control animals received only the vehicle. After 1 h, LPS (50 μg/mouse, Sigma #13129, Sigma Chemical Co., St. Louis, Mo.) was injected intraperitoneally. After 1.5 h, blood was collected from the retro-orbital plexus region of the animals in a microtainer serum separator tube (Becton Dickinson, Cat. No. #5960, Becton Dickinson & Co., Franklin Lakes, N.J.). The sera was separated and the amount of TNF-α was determined using the EM-TNFA® kit (Endogen, Woburn, Mass.) by following the manufacturer's protocol.

The term IC50 denotes the point on the concentration scale where inhibition reaches its midpoint. Usually melting point stands for the temperature, or range, at which the solid turns liquid. `CC(C)[C@H](C(=O)NO)N(Cc1ccccc1)S(=O)(=O)N1CCCCC1` [compound 1, N-hydroxy-2-(R)-[benzyl-(piperdine-1-sulfonyl)amino]-3-methybutyramide] had a melting point of 80.6 to 85.7 °C. In addition, the 50% inhibitory concentration (IC50) in series [1] worked out at 550 nM. The IC50 in series [2] turned out to be 660 nM.

In turn, `CC(C)[C@@H](NS(=O)(=O)N1CCN(c2ccc(Cl)cn2)CC1)C(=O)NO` [compound 50, N-hydroxy-2-(R)-{[4-(5-chloropyridin-2yl)piperazine-1-sulfonyl]amino}-3-methylbutyramide] yielded a melting point of 146.7 to 147 °C. Moreover, the IC50 in series [1] was 220 nM. The IC50 in series [2] worked out at 1.3 nM.

For the compound `CC(C)[C@@H](NS(=O)(=O)N1CCN(c2ccc(Cl)cc2)CC1)C(=O)NO` [compound 51, N-hydroxy-2-(R)-{[4-(4-chlorophenyl)piperazine-1-sulfonyl]amino}-3-methylbutyramide], the melting point was in the range of 154.1 to 154.8 °C. The 50% inhibitory concentration (IC50) in series [1] is 490 nM. Moreover, the IC50 in series [2] was 2.6 nM.

In turn, `CC(C)[C@@H](NS(=O)(=O)N1CCC(Oc2ccc(Cl)cc2)CC1)C(=O)NO` [compound 59, N-hydroxy-2-(R)-{[4-(4-chlorophenoxy)piperidine-1-sulfonyl]amino}-3-methylbutyramide] displayed a melting point of 139.2 to 139.6 °C. Further, the “% protection” value in series [3] is listed as 58%. Further, the IC50 in series [1] came out at 110 nM. The “% protection” value in series [4] came out at 54%. Moreover, in series [2], the concentration for half-maximal inhibition (IC50) was 0.18 nM.

`CC(C)[C@@H](NS(=O)(=O)N1CCN(c2ccc(OCc3ccccc3)cc2)CC1)C(=O)NO` [compound 74, N-hydroxy-2-(R)-{[4-(4-benzyloxyphenyl)piperazine-1-sulfonyl]amino}-3-methylbutyramide] showed a melting point of 149 to 156 °C. For the same compound, in series [1], the IC50 came out at 7600 nM. In addition, the IC50 in series [2] is 0.73 nM.

In turn, `CC(C)[C@@H](NS(=O)(=O)N1CCC(Oc2ccc(Cl)cn2)CC1)C(=O)NO` [compound 100, N-hydroxy-2-(R)-{[4-(5-chloropyridin-2-yloxy)piperidine-1-sulfonyl]amino}-3-methylbutyramide] came in with a melting point of 97 to 98.4 °C. Also, the “% protection” value in series [3] was 40%. For the same compound, in series [4], the “% protection” value came out at 68%.

`O=C(NO)[C@H](CSCc1ccccc1)NS(=O)(=O)N1CCN(c2ccc(Cl)cn2)CC1` [compound 102] gave a melting point of 86 to 86.7 °C. In addition, the IC50 in series [1] stood at 338 nM. In series [2], the IC50 was 0.92 nM.

`CC(C)[C@@H](NS(=O)(=O)N1CCC(c2nc(-c3ccccc3)c[nH]2)CC1)C(=O)NO` [compound 133]: the melting point was in the range of 141 to 142.3 °C. The half-inhibitory concentration (IC50) in series [1] is 20000 nM. Also, the half-inhibitory concentration (IC50) in series [2] worked out at 18 nM.

Consider `CC(C)[C@@H](NS(=O)(=O)N1CCC(Oc2ccc(F)cc2)CC1)C(=O)NO` [compound 179], for which the melting point lay in the range of 74.3 to 75.3 °C. In addition, the IC50 in series [1] was found to be 23 nM. Moreover, the concentration for half-maximal inhibition (IC50) in series [2] worked out at 0.073 nM.

`O=C(c1ccc(Cl)cc1)C1CCN(S(=O)(=O)N2CCCC[C@@H]2C(=O)NO)CC1` [compound 242] showed a melting point of 84.4 to 86.4 °C. In addition, in series [1], the IC50 was 67 nM. In series [2], the IC50 turned out to be 0.063 nM.

Turning to `CN(C)C(=O)N1CCN(S(=O)(=O)N2CCC(c3c[nH]c4c(F)c(F)c(F)c(F)c34)CC2)[C@@H](C(=O)NO)C1` [compound 309], the melting point lay in the range of 181 to 184 °C. The IC50 in series [1] was greater than 50000 nM. In addition, the IC50 in series [2] is 500 nM.

Compound `O=C(NO)C1(NS(=O)(=O)N2CCN(c3ccc(Cl)cc3)CC2)CCCCC1` [compound 345, N-hydroxy-1-{[4-(4-chlorophenyl)piperazine-1-sulfonyl]amino}-cyclohexane-1-carboxamide] yielded a melting point of 146.1 to 146.6 °C. Also, the IC50 in series [1] came to 530 nM. Moreover, the half-inhibitory concentration (IC50) in series [2] turned out to be 6.6 nM.

`C[C@@H](NS(=O)(=O)N1CC=C(c2ccc(Cl)cc2)CC1)C(=O)NO` [compound 401] had a melting point of 90.7 to 93 °C. For the same compound, in series [1], the IC50 amounted to 250 nM. Moreover, the concentration for half-maximal inhibition (IC50) in series [2] was determined as 0.19 nM.

Broadly, the % inhibition is the percentage by which the read-out fell short of the control. Read a low % inhibition as a response near the control. With “N-hydroxy-1-[4-(4,5,6,7-tetrafluoroindol-3-yl)piperazine-1-sulfonyl]piperidine-2-(RS)-carboxamide [compound 299]”, the figures for the “% inhibition” value with Human Monomac 6 cells and with TNF-α were 90% and 52%, respectively. In addition, the figures for the IC50 in series [1] and in series [2] were greater than 50000 nM and 410 nM, respectively.

For the compound “N-hydroxy-4-(morpholine-4-ylcarbonyl)piperazine-1-sulfonyl]-4-(S)-hydroxypiperidine-2-(R)-carboxamide [compound 321]”, the “% inhibition” value in the series on Human Monomac 6 cells worked out at 93%; in the series with TNF-α, 50%.
